Measured values: patent US20200352889A1, “CYSTATHIONINE COMPOSITIONS AND METHODS OF TREATMENT FOR HEALTH CONDITIONS” (THE REGENTS OF THE UNIVERSITY OF COLORADO, A BODY CORPORATE, priority 2011, published 2020)
Residues, ends and D or L forms follow the SMILES beside them. *: point of attachment. Cbz = O=C(OCc1ccccc1)*; CH2F = FC*

Tests used:
[1] = system: HepG2 cells; experiment: Tunicamycin or thapsagargin induced cell death in HepG2 cells, comparison with Z-VAD-FMK; type: cell-based, human; conditions: p>0.05 for Z-VAD-FMK
[2] = system: A293AD kidney cells; experiment: Thapsagargin-induced cell death, LDH release, A293AD kidney cells; type: cell-based, human
Procedure: It was previously shown that cystathionine can protect against ER stress induced cell death induced by the glycosylation inhibitor tunicamycin. In order to investigate if this protective effect was limited to tunicamycin, it was investigated whether cystathionine (1 mM) could protect A293AD kidney cells against ER stress induced cell death mediated by the calcium metabolism inhibitor compound thapsagargin (1 uM). Cell death was monitored by measuring LDH release into culture media. In order to investigate if cystathionine was simply blocking apoptosis, the effect of thapsagargin in the presence of the known apoptosis inhibitor Z-VAD-FMK was investigated. […] While it is not necessary to understand the mechanism of action, it is believed that 1.

[3] = system: a23 cells; experiment: Tunicamycin-induced cell death, LDH release, transsulfuration negative a23 cells; type: cell-based, Chinese hamster; conditions: CBS and CGL negative, p<0.0001
Description: However, examination of a direct effect of exogenously added cystathionine is not currently possible in a whole animal model because of complications with the compounds solubility and rapid kinetics of its excretion. In order to investigate the direct effects of cystathionine against ER stress-induced cell death, the cytotoxicity of tunicamycin in the human embryonic kidney cell line 293AD and the human hepatoma cell line HepG2 in the presence and absence of both PPG and exogenously added cystathionine was examined. Preliminary experiments confirmed that both of these cell lines express both CBS and CGL (data not shown). In order to investigate the possible protective effects of cystathionine in the absence of transsulfuration, these experiments were repeated with the CBS and CGL negative Chinese hamster fibroblast line a23 (6).
Cells were seeded in triplicate at ˜75% confluence and pre-treated with either PPG) (5 mM), Cystathionine (1 mM) or with just complete media (DMEM, 10% FBS) as a control. […] To further evaluate a role for cystathionine in resisting the induction of cell death by tunicamycin, cell lysis was quantified by assaying lactate dehydrogenase (LDH) release. The enzyme activity was determined spectrophotometrically and the amount of enzyme leak was expressed as a percentage of the LDH activity observed in untreated control cells. […]

[4] = system: HepG2 cells; experiment: Tunicamycin-induced cell death, LDH release, HepG2 cells; type: cell-based, human; conditions: data not shown
Procedure: Cells were seeded in triplicate at ˜75% confluence and pre-treated with either PPG) (5 mM), Cystathionine (1 mM) or with just complete media (DMEM, 10% FBS) as a control. After 24 hr pre-treatment, cells looked normal, with minimal floating cells. Fresh media with 1% FBS was then added to each well, the cells were further treated with Tm (either 5 or 10 ug)/ml. After 18 hr. treatment with Tunicamycin, cells were photographed under phase-contrast with a Zeiss Axiovert 25 microscope for evidence of dead floating cells. Cells from the group treated solely with tunicamycin became strikingly hyper-refringent, detached from the substratum and floated in the media. […] To further evaluate a role for cystathionine in resisting the induction of cell death by tunicamycin, cell lysis was quantified by assaying lactate dehydrogenase (LDH) release. The enzyme activity was determined spectrophotometrically and the amount of enzyme leak was expressed as a percentage of the LDH activity observed in untreated control cells. […]
Cells were seeded in triplicate at ˜75% confluence and pre-treated with either PPG) (5 mM), Cystathionine (1 mM) or with just complete media (DMEM, 10% FBS) as a control. […] To further evaluate a role for cystathionine in resisting the induction of cell death by tunicamycin, cell lysis was quantified by assaying lactate dehydrogenase (LDH) release. […]

[5] = system: Grp78, Grp94, GADD153; experiment: Northern and Western blotting of UPR induction in 293AD cells; type: cell-based, human
Procedure: To further assess the effect of cystathionine upon induction of the UPR and GADD153 by ER stress Northern and Western blotting experiments were performed.
Immunoblot analysis of total cell lysates was performed as described previously (4,14). Briefly, following incubation with the appropriate primary and horseradish peroxidase-conjugated secondary antibodies (Affinity Biologicals, Ancaster, ON, Canada) membranes were developed using the Renaissance® Western Blot Chemiluminescence Reagent Kit, (Perkin Elmer, Woodbridge, ON, Canada). Proteins were transferred on a nitrocellulose membrane, and probed with anti-KDEL monoclonal antibody, which recognizes Hsp70, GRP78 and GRP94 that was purchased from Stressgen Biotechnologies (SPA-827) or anti GADD153 (Santa Cruz Biotech #SC-7351). Anti-β-Actin monoclonal antibody (Sigma) was used as a loading control.
Total RNA was isolated from 293AD cells using the RNeasy® total RNA kit (Qiagen, Santa Clarita, Calif.) and resuspended in diethylpyrocarbonate (DEPC)-treated water. Quantification and purity of the RNA was assessed by A260/A280 absorption, and RNA samples with ratios greater than 1.6 were stored at […] for further analysis. Total RNA (10 μg/lane) was fractionated on 2.2 mol/L formaldehyde/1.2% agarose gels and transferred overnight onto Zeta-Probe® GT nylon membranes (Bio-Rad, Toronto, Canada) in 10×SSC. The RNA was cross-linked to the membrane using a UV crosslinker (PDI Bioscience, Toronto, Canada) before hybridization. Specific probes were generated by labeling cDNA fragments with [−32P]dCTP (NEN) using a random primed DNA labeling kit (Boehringer Mannheim, Laval, Canada). The cDNA probe for GADD153 (no. AA627477) was obtained from Genome Systems (St Louis, Mo.). The cDNA probe used for GRP78 is a full length cDNA clone that has been described previously (4). After overnight hybridization at 43° C., the membranes were washed as described by the manufacturer, exposed to x-ray film, and subjected to autoradiography.

[6] = system: 293AD cells; experiment: Tunicamycin-induced cell death, LDH release and phase-contrast, 293AD cells; type: cell-based, human
Procedure: Cells were seeded in triplicate at ˜75% confluence and pre-treated with either PPG) (5 mM), Cystathionine (1 mM) or with just complete media (DMEM, 10% FBS) as a control. After 24 hr pre-treatment, cells looked normal, with minimal floating cells. Fresh media with 1% FBS was then added to each well, the cells were further treated with Tm (either 5 or 10 ug)/ml. After 18 hr. treatment with Tunicamycin, cells were photographed under phase-contrast with a Zeiss Axiovert 25 microscope for evidence of dead floating cells. Cells from the group treated solely with tunicamycin became strikingly hyper-refringent, detached from the substratum and floated in the media. […] To further evaluate a role for cystathionine in resisting the induction of cell death by tunicamycin, cell lysis was quantified by assaying lactate dehydrogenase (LDH) release. The enzyme activity was determined spectrophotometrically and the amount of enzyme leak was expressed as a percentage of the LDH activity observed in untreated control cells.
HepG2, 293AD and a23 cells were seeded in triplicate at ˜75% confluence and were pre-treated with either propargylglycine (PPG) (5 mM) or cystathionine (5 mM) in complete media (DMEM, 10% FBS). After 24 hours, fresh media with 1% FBS was added to each well. Cells were then further treated with tunicamycin (either 5 or 10 ug/ml) for 18 hr treatment. Cells were subsequently photographed under phase-contrast with a Zeiss Axiovert 25 microscope for evidence of dead floating cells. To quantify cell death the media supernatant was collected for LDH release assay using a kit from Roche Applied Science (Cat.No.11 644 793 001) according to the manufacturer's standard protocol where cytotoxicity (%)=((experimental value-low control/(high control-low control))×100.
Cells were seeded in triplicate at ˜75% confluence and pre-treated with either PPG) (5 mM), Cystathionine (1 mM) or with just complete media (DMEM, 10% FBS) as a control. After 24 hr. pre-treatment, cells looked normal, with minimal floating cells. Fresh media with 1% FBS was then added to each well, the cells were further treated with Tm (either 5 or 10 ug)/ml. After 18 hr. treatment with Tunicamycin, cells were photographed under phase-contrast with a Zeiss Axiovert 25 microscope for evidence of dead floating cells. Cells from the group treated solely with tunicamycin became strikingly hyper-refringent, detached from the substratum and floated in the media. […] To further evaluate a role for cystathionine in resisting the induction of cell death by tunicamycin, cell lysis was quantified by assaying lactate dehydrogenase (LDH) release. The enzyme activity was determined spectrophotometrically and the amount of enzyme leak was expressed as a percentage of the LDH activity observed in untreated control cells.

[7] = Urinary excretion of cystathionine in mice; type: in vivo, mouse
[8] = Solubility of cystathionine in water; type: physicochemical

SMILES | protection against cell death induced by thapsagargin [1] | protection against cell death induced by tunicamycin [1] | reduction of total cell death ([2]; thapsagargin 1 uM) | reduction in tunicamycin induced cell death (LDH release) [3] [fold] | cell death in cystathionine control ([2]; cystathionine 1 mM alone) | protection against thapsagargin induced cell death (LDH release) ([2]; cystathionine 1 mM, thapsagargin 1 uM) | protection against tunicamycin-induced cell death compared with 293AD cells [4] | expression of Grp78, Grp94 and GADD15 in control cells ([5]; PPG 5 mM or cystathionine 5 mM, no tunicamycin) | scale of induction of Grp78, Grp94 and GADD153 in the presence of tunicamycin ([5]; tunicamycin 5 and 10 μg/ml) | reduction in cell death (LDH release) ([6]; 293AD cells, tunicamycin 10 μg/ml 18 hr, 24 hr pre-treatment PPG 5 mM or cystathionine 1 mM, p<0.0001) [fold] | floating dead cells (phase-contrast) ([6]; tunicamycin 18 hr after PPG or cystathionine pre-treatment) | excretion in urine [7] | solubility in water [8]
COC(=O)C[C@H](NC(=O)[C@H](C)NC(=O)[C@@H](NC(=O)OCc1ccccc1)C(C)C)C(=O)CF [Z-VAD-FMK] (Cbz-Val-Ala-Asp(OMe)-CH2F) | only modest protection | only modest protection | approximately 20% | – | – | – | – | – | – | – | – | – | –
NC(CSCC[C@@H](N)C(=O)O)C(=O)O (stereo partly drawn) [cystathionine, R—S-(2-Amino-2-carboxyethyl)-L-homocysteine] | much greater protective effects | much greater protective effects | – | 16 | No cell death was observed | highly significant protective effects | Essentially identical results | Neither PPG nor exogenously added cystathionine induced expression | Nor did either of these treatments significantly alter the scale of induction | 27 | No floating dead cells were observed | rapidly excreted in the urine | relatively low solubility in water
